The text below walks through data of paper PMC11756396 (Nature Communications, 2025).

Series [1] has as its target T1, HLA-A3 (Homo sapiens, UniProt P04439).
T1 construct: the extracellular domain of the MHC heavy chain, β2-microglobulin, TCR α and β chains; made in house
As to the kind of experiment: Peptide dissociation from HLA-A3 by fluorescence anisotropy. It counts as binding.

For series [2], the target named is T1, HLA-A3. More on the design: method as in 2 sources, one per row (each row's own in cited_ref): ref 15 (a number printed in a supplementary file, which may have a reference list of its own: not looked up in the article's list) ||| ref 10, ref 15. The note with it: cited from earlier work.
For series [3], the system named is TCR4-expressing T cells co-cultured with HLA-A3+ antigen presenting cells (Cos-7). Nature of the series: CD107a degranulation of TCR4-transduced T cells, peptide-pulsed HLA-A3+ APC (flow cytometry). The settings on record: for CD107a, absolute frequency: TCR4, 6 h co-culture, E:T 1:1, mean of three replicates.
Experimental: TCR-T cells were utilized for downstream functional analysis at days 5–8 post transduction.
Cos-7 cells were electroporated with 100 μg/mL of HLA-A*03:01 mRNA and plated into 96-well round-bottom plates overnight. […] Cells were washed with 1× PBS to remove any unbound peptide. […] Cells were washed again with PBS and then fixed and permeabilized for 15 min at 4 °C. […] All antibodies were used at a final concentration of 5 μg/mL. Finally, cells were washed with perm-wash buffer, suspended in 2% FBS in PBS, and data acquired on an X20 LSR Fortessa flow cytometer with the BD FACSDiva software.
The target in series [4] is T1, HLA-A3. Nature of the series: 19F NMR of 5F-Trp-substituted peptide/HLA-A3. The settings on record: 5F-Trp6, 0.3 mM complex, pH 7.4, 5 °C.
Experimental: ^19F NMR spectra were recorded using a Bruker 600 MHz NMR instrument with a QCI cryogenic probe at NMRFAM, University of Wisconsin-Madison. All proteins were solubilized in 10 mM HEPES, 150 mM NaCl, pH 7.4 with 10% D2O (Cambridge Isotope Laboratories DLM-4-25).
NMR probe temperature was maintained at a calibrated value of 5.2 °C. […] To improve the signal/noise ratio, we compared ^19F 1D spectra recorded with and without proton decoupling. Decoupling caused a noticeable reduction of the signal intensity of the ^19F nuclear spin in the context of the complexes; therefore, all spectra were collected un-decoupled to maximize sensitivity. The reference frequency of the ^19F channel was set through internal routines of the Topspin acquisition software after the spectrometer was locked on D2O. The recycle delay was optimized to find the best compromise between the longitudinal relaxation and the repetition rate for signal averaging. The optimal values of D1 = 0.4 s and AQ = 0.59 s were used in all experiments. One-dimensional fluorine experiments were recorded with the pulse program zgflqn.F from the standard Bruker library with TD1 = 134,078 points and a spectral width (SW) of 200 ppm. […] The 4 h data blocks were checked individually for a possible frequency drift (which was not detected) and added to obtain combined datasets with improved signal/noise ratio. […]
The target of series [5] is T1, HLA-A3. The note with it: PIK3CA–HLA-A3 complex; quoted in peer review; cited from earlier work.
The subject of a further series is T cells. The note with it: high, supraphysiological concentrations; cited from earlier work.
Series [6] has as its system TCR4-expressing T cells co-cultured with HLA-A3+ antigen presenting cells (Cos-7). As to the kind of experiment: TNFα production by TCR4-transduced T cells (intracellular cytokine staining). The note with it: Conc. 100 (unit not given), mean of three replicates.
In series [7] the test system is TCR3-expressing T cells co-cultured with HLA-A3+ antigen presenting cells (Cos-7). As to the kind of experiment: TNFα production by TCR3-transduced T cells (intracellular cytokine staining). The note with it: Conc. 100 (unit not given), mean of three replicates.

T1 sequence (P04439 25-308 limits assumed): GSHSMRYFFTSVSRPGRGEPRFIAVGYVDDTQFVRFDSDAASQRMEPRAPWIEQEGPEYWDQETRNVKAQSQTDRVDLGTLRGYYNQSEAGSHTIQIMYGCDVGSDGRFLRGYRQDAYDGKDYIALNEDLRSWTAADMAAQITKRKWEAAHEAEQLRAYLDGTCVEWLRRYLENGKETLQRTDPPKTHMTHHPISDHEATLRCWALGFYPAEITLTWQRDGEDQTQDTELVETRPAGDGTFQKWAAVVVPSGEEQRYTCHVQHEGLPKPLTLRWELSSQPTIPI
T1 sequence (P61769 21-119 partner): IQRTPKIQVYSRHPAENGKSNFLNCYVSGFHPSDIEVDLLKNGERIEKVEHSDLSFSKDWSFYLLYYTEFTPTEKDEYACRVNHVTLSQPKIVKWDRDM

With AHHGGWTTK [WT peptide], the “peptide/HLA-A3 dissociation in words” value on HLA-A3 [1] (4 °C, 100 nM fluorescein-labeled peptide/HLA-A3, 100 μM unlabeled peptide, pH 7.4) is “only a small amount of dissociation observed over an extended period”. For the same sequence, the “peptide/HLA-A3 stability in words” value at HLA-A3 [1] (37 °C and 25 °C, 100 nM fluorescein-labeled peptide/HLA-A3, pH 7.4) was “less stable at 37 °C and 25 °C”. The “half-life of peptide/HLA-A3 complex” value at HLA-A3 [2] (37 °C (b252/b262 context), quoted in peer review) is 4.8 min. In addition, the “half-life, peptide dissociation” value at HLA-A3 [2] (HLA-A3, 37 °C, fluorescence anisotropy) is 4.82 min. The “CD107a, absolute frequency” value in series [3] (peptide 0.001 ug/mL) is on record as 1.367; in series [3] (peptide 0.01 ug/mL), 3.473; in series [3] (peptide 0.1 ug/mL) it was 1.267; in series [3] (peptide 1 ug/mL), 1.09; in series [3] (peptide 10 ug/mL), 1.843; in series [3] (peptide 1.00E-05 ug/mL), 1.503. Also, the “stimulation (CD107a)” value in series [3] (TCR4 T cells, peptide concentrations as high as 10 μM) is on record as “no stimulation was evident”. In addition, the “share of remaining 19F population” value at HLA-A3 [4] (broad peak at –[…]) is “roughly 50%”. The “share of total 19F signal” value on HLA-A3 [4] (sharp peak at –125.12 ppm (degradation)) is recorded as “about 19%”. Further, the “melting temperature (thermal stability)” value at HLA-A3 [5] was 37 oC. Besides, the T cell responses result with T cells is “no responses were seen”. Also, the “TNFα, absolute frequency” value worked out at 2.4 in series [6] and 4.823 in series [7].
